# From ChEMBL document CHEMBL1201862, “PubChem BioAssay data set” (2004)
#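 Each compound was tested at five concentrations against cells in 96-well plates for 48 hours. GI50 is the concentration that inhibits growth by half.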 Calls of active or inactive are those of the source. Rule as the data show it: active = GI50 up to about 1.1 µM and inactive = higher.
# Legend:
# Test in all cases: DTP human tumour cell line panel, 48 h
# TK-10 = system: TK-10
# ACHN = system: ACHN
# SW-620 = system: SW-620
# BT-549 = system: BT-549
# IGROV-1 = system: IGROV-1
# COLO 205 = system: COLO 205
# M14 = system: M14
# NCI-H23 = system: NCI-H23
# NCI/ADR-RES = system: NCI/ADR-RES
# HCT-116 = system: HCT-116
# HL-60 = system: HL-60
# NCI-H226 = system: NCI-H226
# CCRF-CEM = system: CCRF-CEM
# Hs-578T = system: Hs-578T
# DU-145 = system: DU-145
# MDA-N = system: MDA-N
# SN12C = system: SN12C
# NCI-H522 = system: NCI-H522
# UACC-62 = system: UACC-62
# OVCAR-5 = system: OVCAR-5
Compound,GI50 (TK-10),GI50 (ACHN),GI50 (SW-620),GI50 (BT-549),GI50 (IGROV-1),GI50 (COLO 205),GI50 (M14),GI50 (NCI-H23),GI50 (NCI/ADR-RES),GI50 (HCT-116),GI50 (HL-60),GI50 (NCI-H226),GI50 (CCRF-CEM),GI50 (Hs-578T),GI50 (DU-145),GI50 (MDA-N),GI50 (SN12C),GI50 (NCI-H522),GI50 (UACC-62),GI50 (OVCAR-5)
COc1cc2oc(-c3ccc4c(c3)OCO4)c(OC)c(=O)c2c(OC)c1O,56.4 µM (inactive),67.8 µM (inactive),> 100 µM (inactive),31.4 µM (inactive),37.5 µM (inactive),> 100 µM (inactive),> 100 µM (inactive),> 100 µM (inactive),66.8 µM (inactive),61 µM (inactive),28.7 µM (inactive),> 100 µM (inactive),34.7 µM (inactive),61 µM (inactive),> 100 µM (inactive),> 100 µM (inactive),71.8 µM (inactive),21.9 µM (inactive),54.3 µM (inactive),> 100 µM (inactive)
Clc1nc(Cl)nc(NC23CC4CC(CC(C4)C2)C3)n1,17.7 µM (inactive),35.3 µM (inactive),16.7 µM (inactive),19.3 µM (inactive),13.7 µM (inactive),17.5 µM (inactive),18 µM (inactive),18.5 µM (inactive),21 µM (inactive),17.1 µM (inactive),3.44 µM (inactive),21 µM (inactive),7.55 µM (inactive),11.8 µM (inactive),16.7 µM (inactive),17.4 µM (inactive),18.1 µM (inactive),16.7 µM (inactive),17.9 µM (inactive),19.5 µM (inactive)
CC/C=C/C(/C=C/C[C@]1(CC)C[C@H](CC)[C@H](CC(=O)O)OO1)CC (stereo not given in full),1.91 µM (inactive),1.91 µM (inactive),2.12 µM (inactive),6.28 µM (inactive),0.353 µM (active),1.78 µM (inactive),8.49 µM (inactive),2.24 µM (inactive),2.1 µM (inactive),2.46 µM (inactive),2.16 µM (inactive),20.8 µM (inactive),0.492 µM (active),1.91 µM (inactive),1.85 µM (inactive),1.85 µM (inactive),5.65 µM (inactive),1.75 µM (inactive),5.94 µM (inactive),2.34 µM (inactive)
c1ccc(CN2C3C4N(Cc5ccccc5)C2C2N(Cc5ccccc5)C(C(N2Cc2ccccc2)N4Cc2ccccc2)N3Cc2ccccc2)cc1,> 100 µM (inactive),> 100 µM (inactive),> 100 µM (inactive),> 100 µM (inactive),> 100 µM (inactive),> 100 µM (inactive),> 100 µM (inactive),> 100 µM (inactive),> 100 µM (inactive),> 100 µM (inactive),> 100 µM (inactive),> 100 µM (inactive),40.1 µM (inactive),> 100 µM (inactive),> 100 µM (inactive),> 100 µM (inactive),> 100 µM (inactive),> 100 µM (inactive),> 100 µM (inactive),> 100 µM (inactive)
